The assay deals with beta-TC6 cells. The assay is described as follows: Insulin HTRF assay (relative activity Ar) in beta-TC6 cells. It counts as cell-based, mouse. To be noted: Mus musculus, Beta-TC6, 4 h, insulin HTRF, supernatant of beta-TC6 cells, incubation with test compound at 37°C for 2, 3, 4h; read-out: Ar (relative activity). A digest of the protocol: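 beta-TC6 cells (15k/well, seeded 24 or 48 h) washed, then exposed to compound in induction buffer (0.5% DMSO final) for 2, 3 or 4 h at 37°C.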
(In general: Time-resolved FRET reads energy transfer from a long-lived donor to a nearby acceptor.)

Some results are limits rather than exact numbers.

`COc1ccc(-c2nc3c(N4CCN(C)CC4)nccc3[nH]2)cc1` [Compound 396, 2-(4-methoxyphenyl)-4-(4-methylpiperazin-1-yl)-1H-imidazo[4,5-c]pyridine]: the Emax was in the range of 30 to 50%. Take `Cn1c(Nc2ccccc2)nc2cnc(Nc3cccnc3)cc21` [Compound 633, 1-methyl-N2-phenyl-N6-(3-pyridyl)imidazo[4,5-c]pyridine-2,6-diamine]: the Emax was in the range of 50 to 100%. Next, `COc1ccc(Nc2nccc3[nH]c(-c4ccccc4Cl)nc23)cc1OC` [Compound 458, 2-(2-chlorophenyl)-N-(3,4-dimethoxyphenyl)-1H-imidazo[4,5-c]pyridin-4-amine]: 50 to 100%. Next, `CC(=O)Nc1cccc(Nc2cc3c(cn2)cc(-c2ccc(C(=O)N(C)C)cc2)n3C)c1` [Compound 56, 4-[6-(3-acetamidoanilino)-1-methyl-pyrrolo[3,2-c]pyridin-2-yl]-N,N-dimethyl-benzamide]: 50 to 100%. As to `COc1ccc(Nc2nccc3[nH]c(-c4cccc(F)c4)nc23)cc1OC` [Compound 404, N-(3,4-dimethoxyphenyl)-2-(3-fluorophenyl)-1H-imidazo[4,5-c]pyridin-4-amine], the Emax is over 100%.

As to `Cn1c(NCc2ccccc2F)nc2cnc(-c3cccc(Cl)c3)cc21` [Compound 866, 6-(3-chlorophenyl)-N-[(2-fluorophenyl)methyl]-1-methyl-imidazo[4,5-c]pyridin-2-amine], the Emax was in the range of 30 to 50%.

Regarding `CS(=O)(=O)c1ccc(Nc2nccc3[nH]c(-c4cccc(C(F)(F)F)c4)cc23)cc1` [Compound 197, N-(4-methylsulfonylphenyl)-2-[3-(trifluoromethyl)phenyl]-1H-pyrrolo[3,2-c]pyridin-4-amine], the Emax lay within 30 to 50%.

As for `Cc1ccc(-c2nc3ccncc3[nH]2)cc1` [Compound 774, 2-(p-tolyl)-3H-imidazo[4,5-c]pyridine], the Emax lay within 0 to 30%. On to `COc1ccc(Nc2cc3[nH]c(-c4ccccn4)cc3cn2)cc1` [Compound 65, N-(4-methoxyphenyl)-2-(2-pyridyl)-1H-pyrrolo[3,2-c]pyridin-6-amine], for which the Emax is over 100%. The value for `COc1ccc(-c2nc3c(Nc4cccc(OC)c4)nccc3[nH]2)cc1` [Compound 390, N-(3-methoxyphenyl)-2-(4-methoxyphenyl)-1H-imidazo[4,5-c]pyridin-4-amine] was 30 to 50%; that for `CNc1nc2cnc(Nc3ccc(OC)cc3)cc2n1CCOC` [Compound 496, 1-(2-methoxyethyl)-N6-(4-methoxyphenyl)-N2-methyl-imidazo[4,5-c]pyridine-2,6-diamine] was 50 to 100%; that for `CC(=O)c1cccc(Nc2cc3c(cn2)cc(-c2cnn(C)c2)n3C)c1` [Compound 150, 1-[3-[[1-methyl-2-(1-methylpyrazol-4-yl)pyrrolo[3,2-c]pyridin-6-yl]amino]phenyl]ethanone] was 50 to 100%. The value for `Cc1cccc(-c2nc3c(Nc4cccc(O)c4)nccc3[nH]2)c1` [Compound 438, 3-[[2-(m-tolyl)-1H-imidazo[4,5-c]pyridin-4-yl]amino]phenol] was 30 to 50%; that for `c1ccc(Nc2nccc3[nH]c(-c4ccsc4)cc23)nc1` [Compound 260, N-(2-pyridyl)-2-(3-thienyl)-1H-pyrrolo[3,2-c]pyridin-4-amine] was 50 to 100%; that for `c1cc(Nc2nccc3[nH]c(-c4ccsc4)cc23)ccn1` [Compound 258, N-(4-pyridyl)-2-(3-thienyl)-1H-pyrrolo[3,2-c]pyridin-4-amine] was over 100%. The value for `COc1ccc(Nc2nccc3c2cc(-c2ccsc2)n3C)cc1` [Compound 279, N-(4-methoxyphenyl)-1-methyl-2-(3-thienyl)pyrrolo[3,2-c]pyridin-4-amine] was 30 to 50%. As for `CNc1nc2cnc(-c3cccs3)cc2n1-c1ccccc1` [Compound 514, N-methyl-1-phenyl-6-(2-thienyl)imidazo[4,5-c]pyridin-2-amine], the Emax fell in the range of 30 to 50%.

(Values after patent EP2818472A1, “Imidazo[4,5-c]pyridine and pyrrolo[3,2-c]pyridine compounds as G-protein-coupled receptor kinase 5 (GRK5) modulators” (Max-Planck-Gesellschaft zur Förderung der Wissenschaften …, priority 2013, dated 2014).)
